Laboratory results: publication PMC11541572, “Nucleotidyltransferase toxin MenT extends aminoacyl acceptor ends of serine tRNAs to control Mycobacterium tuberculosis growth” (Nature Communications, 2024)

What was measured:
MenT3 = target: T1, MenT3 (Mycobacterium tuberculosis, UniProt P96356)
T1 construct: gene Rv1045

MenT1 = target: T2, MenT1 (Mycobacterium tuberculosis, UniProt L7N686)
T2 construct: gene Rv0078A

PcnA = PcnA (Mycobacterium tuberculosis, UniProt L7N672)
PcnA, sequence (L7N672 entry or part of it): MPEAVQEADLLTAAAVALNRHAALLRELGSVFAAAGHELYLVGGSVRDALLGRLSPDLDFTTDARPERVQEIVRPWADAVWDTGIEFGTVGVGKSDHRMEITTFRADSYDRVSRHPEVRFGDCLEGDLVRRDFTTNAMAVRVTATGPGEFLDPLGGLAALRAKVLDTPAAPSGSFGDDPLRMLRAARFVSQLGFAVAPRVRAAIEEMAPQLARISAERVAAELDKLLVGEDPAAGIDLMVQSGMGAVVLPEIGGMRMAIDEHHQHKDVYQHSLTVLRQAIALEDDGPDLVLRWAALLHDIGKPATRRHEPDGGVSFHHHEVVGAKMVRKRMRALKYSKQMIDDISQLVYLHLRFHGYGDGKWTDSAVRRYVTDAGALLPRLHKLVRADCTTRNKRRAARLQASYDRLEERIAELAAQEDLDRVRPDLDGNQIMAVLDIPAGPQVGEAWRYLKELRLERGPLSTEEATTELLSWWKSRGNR

T2 sequence (L7N686 1-197): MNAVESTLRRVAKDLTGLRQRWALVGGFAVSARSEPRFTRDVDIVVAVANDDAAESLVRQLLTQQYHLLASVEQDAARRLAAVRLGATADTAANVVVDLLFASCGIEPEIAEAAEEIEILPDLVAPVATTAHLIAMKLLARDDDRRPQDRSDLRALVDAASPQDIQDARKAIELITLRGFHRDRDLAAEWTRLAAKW
T1 sequence (P96356 1-293): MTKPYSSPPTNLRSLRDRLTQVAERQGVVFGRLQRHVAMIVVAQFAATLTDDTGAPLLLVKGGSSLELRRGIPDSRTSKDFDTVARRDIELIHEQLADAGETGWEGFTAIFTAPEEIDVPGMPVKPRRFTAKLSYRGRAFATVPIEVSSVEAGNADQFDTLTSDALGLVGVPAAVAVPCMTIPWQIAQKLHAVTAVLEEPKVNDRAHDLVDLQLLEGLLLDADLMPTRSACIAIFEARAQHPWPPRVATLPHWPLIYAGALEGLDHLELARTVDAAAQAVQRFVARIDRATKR

Compound	transfer of alpha-32P nucleotide to tRNA, urea-PAGE autoradiography (MenT3)	transfer of alpha-32P nucleotide to tRNA, urea-PAGE autoradiography (MenT1)	pyrophosphorolysis of labelled tRNA, urea-PAGE autoradiography (PcnA)
Nc1ccn([C@@H]2O[C@H](COP(=O)(O)OP(=O)(O)OP(=O)(O)O)[C@@H](O)[C@H]2O)c(=O)n1 [CTP]	CTP is by far the preferred nucleotide substrate of MenT3 in vitro	in the presence of α-32P labeled CTP for MenT1 and MenT3	
O=P(O)(O)OP(=O)(O)O [inorganic pyrophosphate]			PcnA is indeed capable of generating truncated tRNA^Ser-4ΔA and ΔCA from MenT3-modified tRNA
